Key:
Assay in all cases: relative viability (nuclei count vs DMSO), 5 days (fraction); higher = more cells survive
[1] = compound: CCOC(=O)CCNc1cc(N2CCc3ccccc3CC2)nc(-c2ccccn2)n1 [GSK-J4] + CC(C)C[C@H](NC(=O)[C@H](Cc1ccccc1)NC(=O)c1cnccn1)B(O)O [Bortezomib] (partner 0.002 µM)
Procedure, shortened: (§1)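 Each reported value is a median over duplicate plates. It expresses relative viability: treated-well nuclei count divided by vehicle-well nuclei count. Lung cancer cell lines in 1536-well plates were dosed by pin tool a day after seeding, alone with one drug or with a fixed anchor-drug dose plus five library-drug doses (not always all listed) in √10 steps, and nuclei were counted after 5 days.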

[2] = compound: CN1CCC(CC1)OC2=CC(=C(C=C2)NC3=NC=C4C(=N3)N(C(=O)N4C)C5CCCC5)OC [AZ3146] + N=C(N)NC(=N)NCCc1ccccc1 [Phenformin] (partner 250 µM)
Procedure, shortened: as §1

[3] = compound: CCOC(=O)CCNc1cc(N2CCc3ccccc3CC2)nc(-c2ccccn2)n1 [GSK-J4] + CC1(C)CCC(c2ccc(Cl)cc2)=C(CN2CCN(c3ccc(C(=O)NS(=O)(=O)c4ccc(N[C@H](CCN5CCOCC5)CSc5ccccc5)c(S(=O)(=O)C(F)(F)F)c4)cc3)CC2)C1 [Navitoclax] (partner 0.5 µM)
Procedure, shortened: as §1

[4] = compound: CCOC(=O)CCNc1cc(N2CCc3ccccc3CC2)nc(-c2ccccn2)n1 [GSK-J4] + Nc1nc2[nH]cc(CCc3ccc(C(=O)N[C@@H](CCC(=O)O)C(=O)O)cc3)c2c(=O)[nH]1 [Pemetrexed] (partner 0.2 µM)
Procedure, shortened: as §1

Cell Line	relative viability ([1]; first compound 0.5 µM)	relative viability ([1]; first compound 5 µM)	relative viability ([1]; first compound 15.81 µM)	relative viability ([1]; first compound 50 µM)	relative viability ([2]; first compound 0.08 µM)	relative viability ([2]; first compound 0.253 µM)	relative viability ([2]; first compound 0.8 µM)	relative viability ([2]; first compound 2.53 µM)	relative viability ([2]; first compound 8 µM)	relative viability ([3]; first compound 0.5 µM)	relative viability ([3]; first compound 5 µM)	relative viability ([3]; first compound 15.81 µM)	relative viability ([3]; first compound 50 µM)	relative viability ([4]; first compound 0.5 µM)	relative viability ([4]; first compound 1.581 µM)	relative viability ([4]; first compound 5 µM)	relative viability ([4]; first compound 15.81 µM)	relative viability ([4]; first compound 50 µM)	relative viability ([1]; first compound 1.581 µM)	relative viability ([3]; first compound 1.581 µM)
NCI-H1666	0.776	0.84	0.66	0.495	0.592	0.574	0.53	0.608	0.528	1.08	1.19	0.918	0.472	0.864	0.665	0.765	0.882	0.791	–	–
NCI-H1734	0.795	0.738	0.725	0.783	0.393	0.373	0.406	0.426	0.376	0.83	0.694	0.734	0.632	0.424	0.412	0.391	0.407	0.364	0.878	0.736
NCI-H1755	0.937	0.649	0.886	0.905	0.548	0.577	0.57	0.601	0.569	0.978	0.975	0.955	0.96	0.4	0.349	0.398	0.388	0.365	0.813	0.888
NCI-H1792	0.963	0.915	0.909	1.02	0.191	–	0.318	0.267	0.121	0.621	0.574	0.567	0.514	0.799	0.595	0.501	0.632	0.777	0.724	0.571
NCI-H1915	0.883	0.661	0.931	1.01	0.285	0.375	0.381	0.365	0.343	0.759	0.747	0.715	0.765	0.41	0.518	–	0.473	0.446	0.924	0.713
NCI-H1975	0.383	–	0.368	0.413	0.406	0.387	0.386	0.401	0.301	1.05	–	1.04	1.15	0.249	0.285	0.212	0.331	0.276	0.354	1.11
NCI-H1993	1.18	1.19	0.878	0.812	0.513	0.509	0.499	0.557	0.45	1.14	1.13	0.866	0.681	0.699	0.585	0.575	0.562	0.476	1.24	0.951
NCI-H2009	0.837	0.58	0.962	0.398	0.478	0.494	0.402	0.386	0.311	1.14	0.951	1.14	0.882	0.964	0.846	0.769	0.997	0.576	0.329	1.12
NCI-H2023	0.912	0.878	0.799	0.801	0.403	0.428	0.349	0.38	0.217	0.921	1.08	0.991	0.915	0.177	0.245	0.238	0.218	0.173	0.71	0.976
NCI-H2085	0.949	0.857	1.09	1	0.659	0.67	0.67	0.757	0.477	0.971	1.13	1.09	0.999	0.899	0.789	0.699	0.883	0.961	0.927	1.12
NCI-H2087	0.789	–	0.701	0.72	0.382	0.54	0.406	0.46	0.471	0.795	–	0.99	0.758	0.622	0.667	0.635	0.621	0.742	0.763	1.08
NCI-H2126	1.02	1.09	1.05	0.998	0.459	0.508	0.52	0.538	0.452	0.823	0.849	0.72	0.709	0.716	0.593	0.733	0.621	0.555	0.617	0.842
NCI-H2228	0.745	0.973	0.906	0.937	0.345	0.389	0.351	0.321	0.277	1.1	1.07	0.8	0.871	0.335	0.328	0.342	0.36	0.364	0.913	0.868
NCI-H2347	0.827	0.827	0.958	0.818	0.296	0.357	0.461	0.598	0.42	0.7	0.774	0.829	0.608	0.417	0.411	0.378	0.394	0.442	0.818	0.746
NCI-H2405	0.992	–	0.968	1.04	0.4	0.309	0.304	0.373	0.366	0.835	–	0.952	0.928	1.01	1	–	1	1.02	0.724	0.848
NCI-H3122	0.938	0.986	1.02	0.993	0.367	0.391	0.327	0.339	0.305	1.02	1.02	1.04	0.973	0.205	0.201	0.201	0.206	0.19	0.982	1
